Experimental data published in US12168059B2, “Trimeric peptides for antisense delivery” (Sarepta Therapeutics, Inc., priority 2018, dated 2024).
Where no end group is shown, it is not given here.

System: HeLa-654 cells
Test: HeLa-654 eGFP assay (flow cytometry: mean fluorescence, gated cell count, F×C)
Assay type: cell-based, human
Description: With the 36 constructs synthesized, the ability to modulate PMO activity using the modified HeLa cell assay was tested. The HeLa-654 cells were stably transfected to express a nonfluorescent eGFP protein. The eGFP gene is interrupted by a mutant intron from the human β-globin gene (IVS2-654). The insertion alters pre-mRNA splicing to cause retention of a fragment in the mature mRNA that results in a nonfluorescent protein. PMO IVS2-654 base-pairs with the β-globin insertion, modifies mRNA splicing, and thereby leads to expression of fluorescent eGFP.
For treatment, the crude reaction mixture was diluted to 5 μM in media. The concentration of the modular construct was calculated based on the original concentration of the module 1-2 conjugate mixed in the reaction. Using media containing 10% fetal bovine serum (FBS), the cells were treated with each construct for 22 hours, after which the cellular fluorescence was measured by flow cytometry.
The different modules led to several noticeable trends in the level of cellular fluorescence (FIG. 4). When module 2 was DPV6, the overall construct consistently led to high fluorescence, regardless of which peptides were placed in module 3 and 4. However, when either pVEC or TP10 was placed in module 2, minor cellular fluorescence was observed. […]

| Substance | activity relative to PMO by itself (single peptide conjugated to PMO on its own) | cell viability, in words (low micromolar concentrations of copper in cell culture) |
| --- | --- | --- |
| W/R: W/R peptide (RRWWRRWRR) conjugated to PMO on its own (also: conjugated to PMO (position not given here)) | around 3 × |  |
| copper |  | did not affect cell viability |
